Assay results taken from EP0538469A1, “SULFONANILIDE DERIVATIVE AND MEDICINE” (NIPPON SHINYAKU COMPANY, LIMITED, priority 1990, dated 1991).
Where two headings read alike, the source gives them in different places. Marks after values point to notes of the source that are not given here.

Tests used:
male rabbits [1] = test: Action to intra urethral pressure and blood pressure, intravenous administration; assay type: in vivo
Experimental: (§1) The experiment was conducted using male rabbits of body weight of 1.4-3.1 kg under fasted condition. The animals were fixed at backs under uretrane(1.2g/kg s.c.) anesthesia, abdomen was subjected to a midline incision and bladder was exposed. In order to prevent the urine stored in the bladder on the intra urethral pressure, the urine in the bladder was compulsorily discharged out of the body. After that, a catheter was inserted into both ureters and the urine discharged from kidney was introduced outside.
(§2) The intra urethral pressure(IUP) at the urethra tract of about 0.5-1 cm distance from the neck of the bladder was measured using a microtip transducer transducer equipped with a baloon (filled with physiological saline solution) at the top end. Further, polyethylene tube was inserted into femoral artery to measure the blood pressure (BP).
The drug to be tested was injected into the vein of ear every fifteen minutes and the maximum responses of the increasing action of intra urethral pressure tract and of the increasing action of blood pressure were measured at each dose.

mice (ddY-strain, male) = test: Acute toxicity, oral, mice; assay type: in vivo; details: observed two weeks
Experimental: (§3) Numbers of mice (ddY-strain, male, 6-8 weeks age) and rats (SD strain, male, 6-7 weeks age) in each group were 4 and 6, respectively.
(§4) The drug to be tested was orally administered at the dose of 10 ml/kg using an oral probe to the animals which were fasted since one day before (for 16-18 hours). After giving the drug, the animals were returned to the state where both feed and water were available and the general symptom and the dead cases, if any, were checked for two weeks. The drug was suspended in physiological saline solution containing 0.5% of methylcellulose (0.5% MC) and the suspension was given to the animals by oral route.

male rabbits [2] = test: Action to intra urethral pressure and blood pressure, administration to duodenum; assay type: in vivo
Experimental: as §1, §2
Abdomen right above stomach was subjected to a midline incision and, after that, the drug to be tested suspended in 0.5% methyl cellulose (0.5% MC) was administered at the dose of 0.5ml/kg to the duodenum. […] The above administration to duodenum corresponded to oral administration as the administration into digestive organ in anethetized animals.

rats (SD strain, male) = test: Acute toxicity, oral, rats; assay type: in vivo; details: observed two weeks
Experimental: as §3, §4

[3] = Acute toxicity, oral, rats; assay type: in vivo; details: rat, in vivo, SD rats, read-out: Rats LD₅₀
Experimental: as §3, §4

α₁-adrenoceptors = test: α₁-Adrenoceptor binding assay with [³H]-prazosin, brain membrane; design: species or system Rats
Experimental: Preparation of the receptor membrane was conducted as follows. Rats were decapitated, brain except cerebellum was excised, weighed, 40 times as much 50mM Tris-hydrochloric acid buffer (pH: 7.4) was added and the mixture was homogenized with a Polytron homogenizer and centrifuged for 20 minutes at 39,000 x g. Buffer solution was added to the precipitate and the resulting suspension was again centrifuged for 20 minutes. Then the precipitate was suspended in 40 volumes of Tris-hydrochloric acid buffer to prepare a receptor sample. The above operations were all conducted at 4°C.
α ₁-Adrenoceptor binding assay was conducted as a radioactive ligand using a [³H]-prazosin.
First, the receptor sample prepared as above was incubated in 50 mM Tris-hydrochloric acid buffer (pH 7.4) with [³H]-prazosin (0.2nM) at 25°C for 30 minutes. […] The mixture was allowed to stand at room temperature for not shorter than about 10 hours and the radioactivity was measured with a liquid scintillation counter to give a total binding.
The same reaction as above was conducted in the presence of 1 µM of prazosin as well and the resulting radioactivity was defined as nonspecific binding. […]
The inhibition activity of the test drug to the [³H]-prazosin binding was calculated by measuring the amount of the specific [ ³H] -prazosin binding in the presence of various concentrations of the drug. […]

smooth muscle of urethra = test: Contraction of isolated smooth muscle of urethra (Magnus vessel, cumulative concentration/response curves); assay type: cell-based, rabbits; details: for EC50: Oryctolagus cuniculus
Experimental: (§5) The experiment was conducted using female rabbits of 2 to 3.5 kg body weight.
(§6) The animals were killed by draining the blood out under anesthetizing with pentobarbital (30 mg/kg, by intravenous injection) and smooth muscle of urethra and femoral artery were excised. Each of the excised samples was placed in a Magnus vessel filled with a modified Krebs solution (at 37°C; under mixed gas) and both smooth muscle of urethra and femoral artery were suspended with 1 g load.
(§7) The drug to be tested was accumulated to contract the samples whereby the concentration/response curves were obtained wherefrom ED₅₀ (M) and pD₂ were calculated and the selectivity to urethra was determined.

femoral artery = test: Contraction of isolated femoral artery (Magnus vessel, cumulative concentration/response curves); assay type: cell-based, rabbits; details: Oryctolagus cuniculus
Experimental: as §5, §6, §7

[4] = 0.1 mg/kg i.d., 10 min after administration
[5] = 0.1 mg/kg i.d., 20 min after administration
[6] = 0.1 mg/kg i.d., 30 min after administration
[7] = 0.1 mg/kg i.d., 60 min after administration
[8] = 0.1 mg/kg i.d., 90 min after administration
[9] = 0.1 mg/kg i.d., 120 min after administration
[10] = 0.1 mg/kg i.d., 180 min after administration
[11] = 0.3 mg/kg i.d., 10 min after administration
[12] = 0.3 mg/kg i.d., 20 min after administration
[13] = 0.3 mg/kg i.d., 30 min after administration
[14] = 0.3 mg/kg i.d., 60 min after administration
[15] = 0.3 mg/kg i.d., 90 min after administration
[16] = 0.3 mg/kg i.d., 120 min after administration
[17] = 0.3 mg/kg i.d., 180 min after administration

SMILES: CS(=O)(=O)Nc1ccc(F)c([C@@H](O)CN)c1.Cl [(49B), (R)-(-)-3'-(2-Amino-1-hydroxyethyl)-4'-fluoromethanesulfonanilide hydrochloride]
- Selectivity (B/A) (male rabbits [1]; BP(ED30%↑) / IUP(ED150%↑), i.v.): 5.3
- ED (30%) (male rabbits [1]; Oryctolagus cuniculus, iv, read-out: BP(B) [BP(ED30%↑)]): 0.048 mg/kg
- Mice Dead/ Total (mice (ddY-strain, male); 1000 mg/kg): 0 / 4
- Mice Dead/ Total (mice (ddY-strain, male); 3000 mg/kg): 0 / 4
- Change(%) BP (male rabbits [2]; [4]): 2.7%
- Change(%) BP (male rabbits [2]; [5]): 1.9%
- Change(%) BP (male rabbits [2]; [6]): 3.3%
- Change(%) BP (male rabbits [2]; [7]): 0.5%
- Change(%) BP (male rabbits [2]; [8]): -5.0%
- Change(%) BP (male rabbits [2]; [9]): -9.8%
- Change(%) BP (male rabbits [2]; [10]): -14.9%
- Change(%) BP (male rabbits [2]; [11]): 2.8%
- Change(%) BP (male rabbits [2]; [12]): 4.0%
- Change(%) BP (male rabbits [2]; [13]): 4.7%
- Change(%) BP (male rabbits [2]; [14]): 7.9** %
- Change(%) BP (male rabbits [2]; [15]): 6.5** %
- Change(%) BP (male rabbits [2]; [16]): 3.3* %
- Change(%) BP (male rabbits [2]; [17]): -10.0%
- Change(%) IUP (male rabbits [2]; [4]): 10.5%
- Change(%) IUP (male rabbits [2]; [5]): 11.0%
- Change(%) IUP (male rabbits [2]; [6]): 20.7%
- Change(%) IUP (male rabbits [2]; [7]): 29.4%
- Change(%) IUP (male rabbits [2]; [8]): 28.9%
- Change(%) IUP (male rabbits [2]; [9]): 30.3%
- Change(%) IUP (male rabbits [2]; [10]): 24.1%
- Change(%) IUP (male rabbits [2]; [11]): 21.5%
- Change(%) IUP (male rabbits [2]; [12]): 44.2** %
- Change(%) IUP (male rabbits [2]; [13]): 65.2* %
- Change(%) IUP (male rabbits [2]; [14]): 84.1** %
- Change(%) IUP (male rabbits [2]; [15]): 114.9* %
- Change(%) IUP (male rabbits [2]; [16]): 101.5** %
- Change(%) IUP (male rabbits [2]; [17]): 95.7** %
- dose resulting in intraurethral pressure increasing action of the same grade as known amidephrine (male rabbits [2]; administration to digestive organ, relative to amidephrine dose): about one-tenth
- Rats Dead/ Total (rats (SD strain, male); 500 mg/kg): 0 / 6
- Rats Dead/ Total (rats (SD strain, male); 1000 mg/kg): 0 / 6
- LD50 at 336 h [3]: > 1000 mg/kg
- inhibiting action to binding of [³H]-prazosin, stronger than amidephrine (α₁-adrenoceptors; relative to amidephrine): about twice
- inhibiting action to binding of [³H]-prazosin, stronger than phenylephrine (α₁-adrenoceptors; relative to phenylephrine): about five times
- Selectivity (B/A) (smooth muscle of urethra; ED₅₀ femoral artery / ED₅₀ urethra): 0.73
- EC50 (smooth muscle of urethra; read-out: ED₅₀ Urethra(A)): 4.41 µM
- EC50 (smooth muscle of urethra; read-out: pD₂ Urethra(A)): 4.37 µM
- EC50 (femoral artery; read-out: ED₅₀ Femoral Artery(B)): 3.21 µM
- EC50 (femoral artery; read-out: pD₂ Femoral Artery(B)): 3.24 µM
